We go through 1 molecule from patent publication US7687079B2, “Methods of treating ileus” (priority 2002, dated 2010).

The test system of one assay is IL-6 mRNA. In words: IL-6 mRNA in muscularis after IM (real time RT-PCR). It counts as in vivo, mouse. As to conditions: IM + CO, 3 and 6 hr time points. As for the experimental part:
Pro- and anti-inflammatory gene expression was determined by real time RT-PCR. The small intestinal muscularis externa was collected at 4 time points (3, 6, 12, and 24 hr) postoperatively and snap frozen in liquid nitrogen. Total RNA extraction was performed using the guanidium-thiocyanate phenol-chloroform extraction method as described in Eskandari et al. (Id.) RNA pellets were resuspended in RNA-secure resuspension solution (Ambion Inc., Austin, Tex.), followed by removal of potential contaminating DNA by treatment with DNase I (DNA-Free Kit, Ambion Inc., Austin, Tex.). Equal aliquots (5 μg) of total RNA from each sample were quantified by spectrophotometry (wavelength […]). Peak mRNA expression was quantified in duplicate by SYBR Green two-step, real-time RT-PCR. β-actin was used as the endogenous reference. […] Real-time PCR data were plotted as the ΔRn fluorescence signal versus the cycle number. […] Quantification of mRNA expression was normalized to β-actin and calculated relative to control using the comparative CT method.
To exclude PCR amplification of contaminating genomic DNA, RT-negative controls (samples containing RNA which was not reverse transcribed) were included in each PCR reaction. […] PCR amplification efficiency of each target cDNA was measured by determining the colinearity of serial dilutions. […]
(In general: Real-time PCR tracks product formation cycle by cycle.)

A further assay has as its system HO-1 mRNA. In words: HO-1 mRNA in muscularis after IM (real time RT-PCR). The format is in vivo, mouse. As for the experimental part: Pro- and anti-inflammatory gene expression was determined by real time RT-PCR. The small intestinal muscularis externa was collected at 4 time points (3, 6, 12, and 24 hr) postoperatively and snap frozen in liquid nitrogen. Total RNA extraction was performed using the guanidium-thiocyanate phenol-chloroform extraction method as described in Eskandari et al. (Id.) RNA pellets were resuspended in RNA-secure resuspension solution (Ambion Inc., Austin, Tex.), followed by removal of potential contaminating DNA by treatment with DNase I (DNA-Free Kit, Ambion Inc., Austin, Tex.). Equal aliquots (5 μg) of total RNA from each sample were quantified by spectrophotometry (wavelength […]). Peak mRNA expression was quantified in duplicate by SYBR Green two-step, real-time RT-PCR. β-actin was used as the endogenous reference. Aliquoted RNA (40 ng) was subjected to first-strand complementary DNA (cDNA) synthesis using random hexamers (PE applied Biosystems, Foster City, Calif.) and Super Script II (Life Technologies, Rockville, Md.). Primers were taken from the literature or designed according to published sequences (Table 3). PCR reaction mixture was prepared using SYBR Green PCR Core Reagents (PE Applied Biosystems). Each sample was estimated in duplicate using the conditions recommended by the manufacturer. Real-time PCR data were plotted as the ΔRn fluorescence signal versus the cycle number. An arbitrary threshold was set to the midlinear portion of the log ΔRn cycle plot. The threshold cycle (CT) is defined as the cycle number at which the ΔRn, crosses this threshold. Quantification of mRNA expression was normalized to β-actin and calculated relative to control using the comparative CT method.
To exclude PCR amplification of contaminating genomic DNA, RT-negative controls (samples containing RNA which was not reverse transcribed) were included in each PCR reaction. Melting curve analyses were performed for each reaction to ensure amplification of specific product. […] PCR amplification efficiency of each target cDNA was measured by determining the colinearity of serial dilutions. […]

For the next assay, the system named is IL-10 mRNA. In words: Example 3 IL-10 mRNA by SYBR green real time RT-PCR. It counts as in vivo, mouse. The conditions noted are these: IM-CO mice. As for the experimental part:
Ileus was induced in mice by gentle manipulation of the small intestine. An incision was made to expose the abdominal cavity of the mouse, and bowel manipulation was performed by gentle poking and prodding of the small intestine (see, e.g., Schwarz et al., Gastroenterology 121(6):1354-1357 (2001)). […] Mice were exposed to CO by inhalation (250 and 500 ppm) for 1 hour immediately prior to intestinal manipulation and during the entire 24-hour recovery period. Intestinal contractility was assessed in vitro by measuring circular muscle strip contractions in response to bethanechol (0.3-300 μM) and in vivo by determining intestinal transit from the distribution of orally-fed, fluorescein-labeled dextran and calculating geometric center as described in Example 1 above. HO-1 and IL-10 mRNA expression were determined by SYBR green real time RT-PCR from extracts of muscularis extemae, as described in Example 1 above. Release of nitric oxide (NO), a potent inhibitor of smooth muscle contractility, was estimated by measuring serum total nitrite, also described in Example 1 above.

For assay [1], the system named is rats with ileus induced by mild manipulation of the small intestine. The assay can be described thus: Example 4 intestinal transit (geometric center) after IM, CO pre-treatment. It counts as in vivo, rat. Here is the method: Ileus was induced by mild manipulation of the small intestine (IM). Rats were exposed to decreasing concentrations of CO (250, 125, 75, 30 ppm) in air for a period of either 1 hr or 3 hr prior to laparotomy (n=6). Results were compared to those obtained using previously established protocols of exposure to CO at 250 ppm 1 hr before and for 24 hr after laparotomy. Gastrointestinal function was assessed in vivo by determining intestinal transit from the distribution throughout the GI tract of orally fed fluorescein labeled dextran. The median distribution of the labeled dextran was determined for statistical comparison by calculating the geometric center (GC).

The next assay concerns IL-1β protein. The assay can be described thus: IL-1β protein release from muscularis extracts (ELISA). It counts as in vivo, mouse. As for the experimental part: Protein and Nitric Oxide Determinations. The small bowel of control and mice subjected to intestinal manipulation was removed under sterile conditions, 4 or 24 hours post-operatively, leaving the colon in situ. The small intestine was transferred to a beaker containing chilled Hanks balanced salt solution (Sigma, St. Louis, Mo.) with 200 U/ml penicillin G and 200 μg/ml streptomycin (HBSS), the lumen flushed, and the tissue transferred to a second beaker of HBSS. The muscularis was harvested as described above for real time RT-PCR. Tissues were maintained under sterile conditions at 3 to 5° C. throughout the harvesting procedure. Isolated muscularis was blotted onto sterile gauze, and the wet weight determined to obtain aliquots of 40 to 60 mg. Tissue aliquots were washed twice in HBSS, transferred to 35 mm well culture plates containing 3 ml of serum-free DMEM containing penicillin/streptomycin, and incubated for 24 hrs in a humidified 5% CO2 incubator at 37° C. Pharmacological agents added to the culture medium were filter sterilized prior to use.
After the incubation period, the muscle tissue was pelleted, and aliquots of culture medium were frozen in liquid nitrogen and stored at −80° C. The levels of IL-6, IL-1β, PGE2, and IL-10 proteins secreted into the culture medium were determined using commercially available ELISA kits (R&D Systems, Minneapolis, Minn.) according to the manufacturer's instructions. Nitric oxide (NO) released into the culture medium was estimated by measuring the stable end products of NO metabolism. Nitrate/nitrate levels were measured 24 hrs postoperatively using commercially available test kit (Oxford Biomedical Research, Oxford, Mich.) and quantified according to the manufacturer's directions. In this assay system, nitrate is reduced to nitrite using granulated cadmium, and the total nitrite concentration is subsequently measured using the Griess reaction. All measurements were normalized to tissue wet weight.
In general terms: An ELISA detects its analyte on a solid surface through an enzyme-linked reagent.

“Also recorded” adds a separate entry of the source.

Consider `[C-]#[O+]` [CO, carbon monoxide], for which, in the assay with IL-6 mRNA, the “manipulation-induced IL-6 gene expression” value was “no effect”. Besides, the “HO-1 mRNA expression” value in the assay with HO-1 mRNA (IM + CO vs IM, 3 hr but not 6 hr postoperatively) was “significantly increased”. Besides, the “HO-1 gene expression, increase over manipulation alone” value in the assay with HO-1 mRNA (IM + CO vs IM, 3 hr postoperatively) worked out at 300%. The HO-1 gene expression entry in the assay with HO-1 mRNA (unoperated control mice, CO alone, 6 hr time point) is “small, though significant, increase; also recorded: increased”. Besides, the “IL-10 expression versus controls” value with IL-10 mRNA is 35 fold. The “geometric center (GC)” value in assay [1] (IM rats, 250 ppm for 1 hr only prior to surgery) was 7.2±0.3; in assay [1] (IM rats, 250 ppm pretreatment for 3 hr) it was 8.6±0.3; in assay [1] (IM rats, 250 ppm, 1 hr pretreatment followed by 24 hr post-treatment), 8.2±0.4; in assay [1] (IM rats, pre-treating with 30 ppm) it was 7.0±0.2; in assay [1] (IM rats, pre-treating with 75 ppm), 8.8±0.1; in assay [1] (IM rats, pre-treating with 125 ppm), 8.6±0.4. Besides, the “geometric center (GC)” value in assay [1] (unoperated rats, 250 ppm for 24 hr) is 8.8±0.4. The IL-1β protein release entry in the assay on IL-1β protein (IM + CO vs IM, 24 hr after surgery) is “significantly attenuated”. Moreover, the “reduction of IL-1β protein release” value in the assay with IL-1β protein (IM + CO vs IM, extracts harvested 24 hr after surgery) was determined as 60%. Besides, the IL-1β protein entry in the assay with IL-1β protein (control mice treated with CO) is “no IL-1β protein could be detected”.
